Literature values in patent publication US20250231185A1, “Coronavirus T Cell Epitopes, Megapools and Uses Thereof” (La Jolla Institute for Immunology, priority 2021, published 2025).
Read-outs that look alike come from different tables or passages of the source.

Tested on: CD8+ T cells
Conditions: cited from earlier work
[1] = CD8RE megapool peptides (non-spike SARS-CoV-2 antigens), dominant epitope Yes/No
[2] = T cell type (CD4 or CD8) recognizing the SARS-CoV-2 epitope
[3] = SARS-CoV-2 Ag S, T cell type recognizing the epitope
[4] = T cell subset (CD4 or CD8) recognizing the SARS-CoV-2-derived epitope
[5] = CD8R (D) megapool epitopes, dominant = recognized by 3 or more donors/different studies
[6] = SARS-CoV-2-derived CD8 epitopes, dominant = recognized by 3 or more donors/different studies

Substance: 2913 (ATSRTLSYY) [compound 2913]
- Dominant [1]: Yes (more dominant epitopes are defined by being recognized by 3 or more donors/different studies)

Substance: 974 (TITQMNLKY) [compound 974]
- Restriction [2]: CD8

Substance: 3048 (KLFIRQEEV) [compound 3048]
- Dominant [1]: Yes (more dominant epitopes are defined by being recognized by 3 or more donors/different studies)

Substance: 1092 (CATVHTANKW) [compound 1092]
- Restriction [2]: CD8

Substance: 2953 (FVDGVPFVV) [compound 2953]
- Dominant [1]: Yes (more dominant epitopes are defined by being recognized by 3 or more donors/different studies)

Substance: 2954 (ISDYDYYRY) [compound 2954]
- Dominant [1]: Yes (more dominant epitopes are defined by being recognized by 3 or more donors/different studies)

Substance: 1369 (TQLNRALTGI) [compound 1369]
- Restriction [3]: CD8

Substance: 601 (MELTPVVQTI) [compound 601]
- Restriction [4]: CD8

Substance: 1036 (YYPSARIVY) [compound 1036]
- Restriction [2]: CD8

Substance: 1803 (IVGVALLAVF) [compound 1803]
- Dominant [5]: Yes (more dominant epitopes are defined by being recognized by 3 or more donors/different studies)

Substance: 618 (KLVSSFLEM) [compound 618]
- Restriction [4]: CD8

Substance: 1414 (RLQSLQTY) [compound 1414]
- Restriction [3]: CD8

Substance: 999 (LYYQNNVFM) [compound 999]
- Restriction [2]: CD8

Substance: 648 (GEVITFDNL) [compound 648]
- Restriction [4]: CD8

Substance: 503 (YLGTGPEAGL) [compound 503]
- Restriction [4]: CD8

Substance: 1774 (FSAVGNICY) [compound 1774]
- Dominant [5]: Yes (more dominant epitopes are defined by being recognized by 3 or more donors/different studies)

Substance: 645 (YYTSNPTTFHL) [compound 645]
- Restriction [4]: CD8

Substance: 1683 (KFPRGQGVPI) [compound 1683]
- Dominant [5]: Yes (more dominant epitopes are defined by being recognized by 3 or more donors/different studies)

Substance: 692 (YYKKDNSYF) [compound 692]
- Restriction [4]: CD8

Substance: 1097 (FWRNTNPIQL) [compound 1097]
- Restriction [2]: CD8

Substance: 1805 (YLYALVYFL) [compound 1805]
- Dominant [5]: Yes (more dominant epitopes are defined by being recognized by 3 or more donors/different studies)

Substance: 688 (TEIDPKLDNYY) [compound 688]
- Restriction [4]: CD8

Substance: 2939 (MEVTPSGTW) [compound 2939]
- Dominant [1]: Yes (more dominant epitopes are defined by being recognized by 3 or more donors/different studies)

Substance: 566 (KTIQPRVEK) [compound 566]
- Dominant [6]: Yes (more dominant epitopes are defined by being recognized by 3 or more donors/different studies)
- Restriction [4]: CD8

Substance: 2905 (FLFLTWICL) [compound 2905]
- Dominant [1]: Yes (more dominant epitopes are defined by being recognized by 3 or more donors/different studies)

Substance: 670 (YLATALLTL) [compound 670]
- Dominant [6]: Yes (more dominant epitopes are defined by being recognized by 3 or more donors/different studies)
- Restriction [4]: CD8

Substance: 534 (QFAPSASAFF) [compound 534]
- Restriction [4]: CD8

Substance: 1301 (VGGNYNYLY) [compound 1301]
- Restriction [3]: CD8

Substance: 2909 (RLFARTRSMW) [compound 2909]
- Dominant [1]: Yes (more dominant epitopes are defined by being recognized by 3 or more donors/different studies)

Substance: 1754 (GVAMPNLYK) [compound 1754]
- Dominant [5]: Yes (more dominant epitopes are defined by being recognized by 3 or more donors/different studies)

Substance: 3030 (ALRANSAVK) [compound 3030]
- Dominant [1]: Yes (more dominant epitopes are defined by being recognized by 3 or more donors/different studies)

Substance: 971 (FAYTKRNVI) [compound 971]
- Restriction [2]: CD8

Substance: 1711 (VLSEARQHL) [compound 1711]
- Dominant [5]: Yes (more dominant epitopes are defined by being recognized by 3 or more donors/different studies)

Substance: 3006 (QLMCQPILLL) [compound 3006]
- Dominant [1]: Yes (more dominant epitopes are defined by being recognized by 3 or more donors/different studies)

Substance: 614 (RTNVYLAVF) [compound 614]
- Restriction [4]: CD8

Substance: 2917 (NTASWFTAL) [compound 2917]
- Dominant [1]: Yes (more dominant epitopes are defined by being recognized by 3 or more donors/different studies)

Substance: 673 (GEAANFCAL) [compound 673]
- Restriction [4]: CD8

Substance: 973 (IPTITQMNL) [compound 973]
- Restriction [2]: CD8

Substance: 570 (AIILASFSAST) [compound 570]
- Restriction [4]: CD8

Substance: 1305 (YNYLYRLFR) [compound 1305]
- Restriction [3]: CD8

Substance: 975 (YAISAKNRAR) [compound 975]
- Restriction [2]: CD8

Substance: 1807 (LLYDANYFL) [compound 1807]
- Dominant [5]: Yes (more dominant epitopes are defined by being recognized by 3 or more donors/different studies)

Substance: 1323 (ELLHAPATV) [compound 1323]
- Restriction [3]: CD8

Substance: 667 (SALNHTKKW) [compound 667]
- Restriction [4]: CD8

Substance: 1393 (QIPFAMQMAY) [compound 1393]
- Restriction [3]: CD8

Substance: 651 (RTIKVFTTV) [compound 651]
- Restriction [4]: CD8

Substance: 507 (YGANKDGIIW) [compound 507]
- Restriction [4]: CD8

Substance: 2968 (VVYRGTTTY) [compound 2968]
- Dominant [1]: Yes (more dominant epitopes are defined by being recognized by 3 or more donors/different studies)

Substance: 633 (MLAHAEETR) [compound 633]
- Restriction [4]: CD8

Substance: 1806 (VYFLQSINF) [compound 1806]
- Dominant [5]: Yes (more dominant epitopes are defined by being recognized by 3 or more donors/different studies)

Substance: 509 (ATEGALNTPK) [compound 509]
- Dominant [6]: Yes (more dominant epitopes are defined by being recognized by 3 or more donors/different studies)
- Restriction [4]: CD8

Substance: 606 (YLKLTDNVY) [compound 606]
- Restriction [4]: CD8

Substance: 626 (ALRKVPTDNY) [compound 626]
- Restriction [4]: CD8

Substance: 2928 (VLQLPQGTTL) [compound 2928]
- Dominant [1]: Yes (more dominant epitopes are defined by being recognized by 3 or more donors/different studies)

Substance: 1049 (LQLGFSTGV) [compound 1049]
- Restriction [2]: CD8

Substance: 654 (QVVDMSMTY) [compound 654]
- Restriction [4]: CD8

Substance: FIAGLIAIV [SEQ ID NO: 1520]
- responses detected in patients (Rha et al., 37 of 112 and 2 of 40 patients): 5%

Substance: 3050 (IMLIIFWFSL) [compound 3050]
- Dominant [1]: Yes (more dominant epitopes are defined by being recognized by 3 or more donors/different studies)

Substance: 1404 (SVLNDILSRL) [compound 1404]
- Restriction [3]: CD8

Substance: 3027 (FTYASALWEI) [compound 3027]
- Dominant [1]: Yes (more dominant epitopes are defined by being recognized by 3 or more donors/different studies)

Substance: 1083 (SVVSKVVKV) [compound 1083]
- Restriction [2]: CD8

Substance: 1438 (GVFVSNGTHW) [compound 1438]
- Restriction [3]: CD8

Substance: 1373 (EVFAQVKQIY) [compound 1373]
- Restriction [3]: CD8

Substance: 1790 (SEFSSLPSY) [compound 1790]
- Dominant [5]: Yes (more dominant epitopes are defined by being recognized by 3 or more donors/different studies)

Substance: 1063 (SLYVNKHAF) [compound 1063]
- Restriction [2]: CD8

Substance: 3015 (FLNGSCGSV) [compound 3015]
- Dominant [1]: Yes (more dominant epitopes are defined by being recognized by 3 or more donors/different studies)
